Assay results taken from US20250136607A1 (REGOR PHARMACEUTICALS, INC., priority 2021, published 2025).
Where two headings read alike, the source gives them in different places.

Experiments:
[1] = system: Citrullinated Histone H3 in dHL-60 cells (differentiated HL-60); experiment: dHL-60 Cit-H3 ELISA assay; format: cell-based, human; conditions: Homo sapiens, read-out: Average IC50 Abs
Protocol: Cell culture: HL-60 cells were grown in IMDM+20% FBS+1% PS. The suspension cells were split into 1:5 with fresh media every 2-3 days to maintain cell density between 1×10^5 to 1×10^6 viable cells/mL. HL-60 cells differentiation: HL-60 cells were diluted to 1×10^5 cells/mL and differentiated into neutrophil-like cells with 100 mM DMF treatment for 72 hours in flask at 37° C., 5% CO2. dHL-60 Cells plating: • 1) HL-60 cells were collected, and the plate was centrifuged at 1000 rpm for 5 min. • 2) The HL-60 cells were diluted to 1.25×10^6 cells/mL and plated into a 96-well plate with 80 μL/well (i.e., 1×10^5/well). The plate was then incubated in the incubator (5% CO2, 37° C.) for 30 min to allow cells to adhere. Compound treatment: • 1) Preparation of compound serial dilution (source plate 500×, final DMSO concentration: 0.2%): briefly, compounds were dissolved in 100% DMSO to a concentration of 20 mM (the stock solution) and a 3-fold serial dilution with 8-point doses was performed. • 2) A 10× compound solution was pipetted up and down; and 10 μL/well of compounds were added into each well and incubated for 30 min. Stimulation with 25 μM A23187: • 1) A solution of A23187 (250 μM) in complete IMDM (IMDM+10% FBS+1% PS) containing 150 U/mL S7 Nuclease was prepared. The obtained solution was added 10 μL/well into each well and incubated for 3 h in the incubator (5% CO2, 37° C.). • 2) The dHL-60 cells treated with 10 μL/well complete IMDM without A23187 worked as negative control. Sample preparation: • 1) EDTA (0.5 M, 2 μL/well) were added to all the wells to stop the reaction. • 2) The plate was centrifuged at 1000 rpm for 5 min to collect supernatant. • 3) The supernatant was then diluted at least 1:2 before adding to the ELISA plate for citrullinated H3 analysis.
The standard was reconstituted with 2 mL of Assay buffer to 500 ng/mL. The reconstituted standard was relatively unstable at 4° C. and should be used within 3 hr after reconstitution.
• 1) 100 μL of the standards or diluted samples were added to the wells on the ELISA plate. • 2) The plate was covered with Cover Sheet and incubated for 2 h at room temperaturert on an orbital shaker.
On the day of the assay, the reagent was thawed at room temperaturert. For one plate, 1.2 mL of HRP Conjugate were diluted into 10.8 mL of assay buffer. A diluted HRP Conjugate was prepared shortly before use.
• 1) The wells were empties and rinsed four times with 1× wash buffer with 300 μL/well (Low speed). The plate was inverted between wash steps to empty the plate. After the last wash, the inverted plate was gently tapped on absorbent paper to remove the residual wash buffer. • 2) 100 μL of the HRP Conjugate working solution were added to each well of the plate. • 3) The plate was covered with cover sheet and incubated for 1 h at RT on an orbital shaker.
• 1) The wells were empties and rinsed four times with 1× wash buffer with 300 μL/well (low speed). The plate was inverted between wash steps to empty the plate. […] 100 uL of HRP STOP solution were added to each well of the plate.
• 1) Wipe the bottom of the plate with a clean tissue to remove fingerprints, dirt, etc. • 2) Read the plate at a wavelength of 450 nm.
The percent (%) inhibition at each concentration of compound was calculated based on and relative to the signal in the HPE and ZPE wells contained within each assay plate. The HPE wells worked as […], and the ZPE wells didn't contain any compound but rather DMSO (final concentration=0.1%) as […]. The concentrations and % inhibition values for tested compounds were plotted and the concentration of compound required for 50% inhibition (IC50) was determined with a Four-parameter logistic dose response equation. The endpoint value (IC50) for the reference peptide/compound was evaluated in each experiment as a quality control measure. If the endpoint value is within 3-fold of the expected value then the experiment is deemed acceptable. […]

[2] = target: Protein arginine deiminase 4 (PAD4) (Homo sapiens, UniProt Q9UM07); experiment: PAD4 ammonia release assay; format: biochemical; conditions: PAD4 ammonia release assay, BAEE substrate, 60 min at RT; read-out: Average IC50 Abs
Sequence of Protein arginine deiminase 4 (PAD4) (Q9UM07 whole entry): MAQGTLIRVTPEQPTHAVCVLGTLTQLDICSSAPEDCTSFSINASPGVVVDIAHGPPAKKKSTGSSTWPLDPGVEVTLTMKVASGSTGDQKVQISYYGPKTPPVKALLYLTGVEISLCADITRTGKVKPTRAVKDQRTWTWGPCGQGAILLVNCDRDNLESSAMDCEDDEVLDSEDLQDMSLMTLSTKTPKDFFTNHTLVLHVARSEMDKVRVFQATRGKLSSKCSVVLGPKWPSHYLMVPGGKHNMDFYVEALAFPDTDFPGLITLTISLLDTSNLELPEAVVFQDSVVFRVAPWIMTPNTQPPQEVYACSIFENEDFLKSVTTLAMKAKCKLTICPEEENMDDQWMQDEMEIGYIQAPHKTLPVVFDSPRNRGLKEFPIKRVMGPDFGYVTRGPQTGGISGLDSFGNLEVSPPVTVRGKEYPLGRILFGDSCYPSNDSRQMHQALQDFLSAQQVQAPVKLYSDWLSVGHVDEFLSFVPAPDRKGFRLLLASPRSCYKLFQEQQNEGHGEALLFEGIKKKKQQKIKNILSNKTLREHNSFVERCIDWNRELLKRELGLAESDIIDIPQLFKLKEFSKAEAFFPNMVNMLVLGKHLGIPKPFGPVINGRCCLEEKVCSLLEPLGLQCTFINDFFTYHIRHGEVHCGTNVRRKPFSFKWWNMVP
In short: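 Ammonia release from BAEE substrate (2× mix 600 μM) was measured after 60 min at RT, following 15 min enzyme–compound preincubation (PAD4 2× 20 nM; pH 8.0 HEPES, 2 mM CaCl2, TCEP; 1.25% DMSO). Detection used OPA/DTT/EDTA for 120 min. % inhibition was taken versus reference-compound and DMSO controls; IC50 by four-parameter logistic fit.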

[3] = HL-60, 3 h, stimulation with 25 μM A23187 for 3 h

Structure (SMILES)	IC50 [1, 3]	IC50 [2]	IC50 ([1]; HL-60, stimulation with 25 μM A23187 for 3 h)
CCn1cc(Cn2c(-c3cc4cccc5c4n3CCN5)nc3cc(C(=O)N4C[C@H](N)C[C@@H](F)C4)cc(F)c32)cn1 [Example 40, ((3R,5R)-3-amino-5-fluoropiperidin-1-yl)(2-(2,3-dihydro-1H-pyrrolo[1,2,3-de]quinoxalin-5-yl)-1-((1-ethyl-1H-pyrazol-4-yl)methyl)-7-fluoro-1H-benzo[d]imidazol-5-yl)methanone]	500 to 5000 nM	100 to 500 nM	
CCC1CN(CCCO)c2cccc3cc(-c4nc5cc(C(=O)N6C[C@H](N)C[C@@H](F)C6)cc(OC)c5n4C)n1c23 (stereo partly drawn) [Example 80, ((3R,5R)-3-amino-5-fluoropiperidin-1-yl)(2-(3-ethyl-1-(3-hydroxypropyl)-2,3-dihydro-1H-pyrrolo[1,2,3-de]quinoxalin-5-yl)-7-methoxy-1-methyl-1H-benzo[d]imidazol-5-yl)methanone]	100 to 500 nM	100 to 500 nM	
COc1cc(C(=O)N2C[C@H](N)C[C@@H](F)C2)cc2nc(-c3cc4cccc5c4n3CCN5CCCO)n(CC3CC(F)(F)C3)c12 [Example 50, ((3R,5R)-3-amino-5-fluoropiperidin-1-yl)(1-((3,3-difluorocyclobutyl)methyl)-2-(1-(3-hydroxypropyl)-2,3-dihydro-1H-pyrrolo[1,2,3-de]quinoxalin-5-yl)-7-methoxy-1H-benzo[d]imidazol-5-yl)methanone]	100 to 500 nM	≤ 100 nM	
CC(C)C1CN(C)c2cccc3cc(-c4nc5cc(C(=O)N6C[C@H]7CC[C@@H]6[C@@H]7N)cc(F)c5n4C)n1c23 (stereo partly drawn) [Example 107, ((1R,4R,7R)-7-amino-2-azabicyclo[2.2.1]heptan-2-yl)(7-fluoro-2-(3-isopropyl-1-methyl-2,3-dihydro-1H-pyrrolo[1,2,3-de]quinoxalin-5-yl)-1-methyl-1H-benzo[d]imidazol-5-yl)methanone]	100 to 500 nM	100 to 500 nM	
COc1cc(C(=O)N2C[C@H](N)C[C@@H](F)C2)cc2nc(-c3cc4cccc5c4n3CCN5CCCO)n(CC(F)(F)F)c12 [Example 23, ((3R,5R)-3-amino-5-fluoropiperidin-1-yl)(2-(1-(3-hydroxypropyl)-2,3-dihydro-1H-pyrrolo[1,2,3-de]quinoxalin-5-yl)-7-methoxy-1-(2,2,2-trifluoroethyl)-1H-benzo[d]imidazol-5-yl)methanone]	100 to 500 nM	100 to 500 nM	
COc1cc(C(=O)N2C[C@H](N)C[C@@H](F)C2)cc2nc(-c3cc4cccc5c4n3CCN5CCCO)n(CC3CCC3)c12 [Example 48, ((3R,5R)-3-amino-5-fluoropiperidin-1-yl)(1-(cyclobutylmethyl)-2-(1-(3-hydroxypropyl)-2,3-dihydro-1H-pyrrolo[1,2,3-de]quinoxalin-5-yl)-7-methoxy-1H-benzo[d]imidazol-5-yl)methanone]	100 to 500 nM	100 to 500 nM	
C#CCn1c(-c2cc3cccc4c3n2C(CC)CN4CCCO)nc2cc(C(=O)N3C[C@H]4CC[C@@H]3[C@@H]4N)cc(F)c21 (stereo partly drawn) [Example 91, ((1R,4R,7R)-7-amino-2-azabicyclo[2.2.1]heptan-2-yl)(2-(3-ethyl-1-(3-hydroxypropyl)-2,3-dihydro-1H-pyrrolo[1,2,3-de]quinoxalin-5-yl)-7-fluoro-1-(prop-2-yn-1-yl)-1H-benzo[d]imidazol-5-yl)methanone]	100 to 500 nM	100 to 500 nM	
CC(C)C1CN(CCCO)c2cccc3cc(-c4nc5cc(C(=O)N6C[C@H]7CC[C@@H]6[C@@H]7N)cc(F)c5n4C)n1c23 (stereo partly drawn) [Example 103, ((1R,4R,7R)-7-amino-2-azabicyclo[2.2.1]heptan-2-yl)(7-fluoro-2-(1-(3-hydroxypropyl)-3-isopropyl-2,3-dihydro-1H-pyrrolo[1,2,3-de]quinoxalin-5-yl)-1-methyl-1H-benzo[d]imidazol-5-yl)methanone]		100 to 500 nM	≤ 100 nM
Cn1c(-c2cc3ccc4c(c3n2CC2CC2)NCCO4)nc2cc(C(=O)N3C[C@H]4CC[C@@H]3[C@@H]4N)cc(F)c21 [Example 158, ((1R,4R,7R)-7-amino-2-azabicyclo[2.2.1]heptan-2-yl)(2-(9-(cyclopropylmethyl)-1,2,3,9-tetrahydro-[1,4]oxazino[2,3-g]indol-8-yl)-7-fluoro-1-methyl-1H-benzo[d]imidazol-5-yl)methanone]	≤ 100 nM	≤ 100 nM	
CCC1CN(CCCO)c2cccc3cc(-c4nc5cc(C(=O)N6C[C@H]7CC[C@@H]6[C@@H]7N)cc(OC)c5n4C)n1c23 (stereo partly drawn) [Example 85, ((1R,4R,7R)-7-amino-2-azabicyclo[2.2.1]heptan-2-yl)(2-(3-ethyl-1-(3-hydroxypropyl)-2,3-dihydro-1H-pyrrolo[1,2,3-de]quinoxalin-5-yl)-7-methoxy-1-methyl-1H-benzo[d]imidazol-5-yl)methanone]	≤ 100 nM	100 to 500 nM	
CCC1CNc2cccc3cc(-c4nc5cc(C(=O)N6C[C@H]7CC[C@@H]6[C@@H]7N)cc(F)c5n4C)n1c23 (stereo partly drawn) [Example 72, ((1R,4R,7R)-7-amino-2-azabicyclo[2.2.1]heptan-2-yl)(2-(3-ethyl-2,3-dihydro-1H-pyrrolo[1,2,3-de]quinoxalin-5-yl)-7-fluoro-1-methyl-1H-benzo[d]imidazol-5-yl)methanone]	100 to 500 nM	100 to 500 nM	
Cn1c(-c2cc3cc(F)cc4c3n2C(C2CC2)CN4)nc2cc(C(=O)N3C[C@H]4CC[C@@H]3[C@@H]4N)cc(F)c21 (stereo partly drawn) [Example 122, ((1R,4R,7R)-7-amino-2-azabicyclo[2.2.1]heptan-2-yl)(2-(3-cyclopropyl-8-fluoro-2,3-dihydro-1H-pyrrolo[1,2,3-de]quinoxalin-5-yl)-7-fluoro-1-methyl-1H-benzo[d]imidazol-5-yl)methanone]	100 to 500 nM	100 to 500 nM	
CC(=O)N1CCc2c(ccc3cc(-c4nc5cc(C(=O)N6C[C@H]7CC[C@@H]6[C@@H]7N)cc(F)c5n4C)n(CC4CC4)c23)C1 [Example 156, 1-(2-(5-((1R,4R,7R)-7-amino-2-azabicyclo[2.2.1]heptane-2-carbonyl)-7-fluoro-1-methyl-1H-benzo[d]imidazol-2-yl)-1-(cyclopropylmethyl)-1,6,8,9-tetrahydro-7H-pyrrolo[2,3-f]isoquinolin-7-yl)ethan-1-one]	≤ 100 nM	≤ 100 nM	
COc1cc(C(=O)N2C[C@H](N)C[C@@H](F)C2)cc2nc(-c3cc4cccc5c4n3CCN5CCCO)n(Cc3cccs3)c12 [Example 37, ((3R,5R)-3-amino-5-fluoropiperidin-1-yl)(2-(1-(3-hydroxypropyl)-2,3-dihydro-1H-pyrrolo[1,2,3-de]quinoxalin-5-yl)-7-methoxy-1-(thiophen-2-ylmethyl)-1H-benzo[d]imidazol-5-yl)methanone]	100 to 500 nM	≤ 100 nM	
